Columns and labels:
[1] = test system: ICR male mice given corn oil; test: Antihyperlipidemic activity, corn oil loaded mice; format: in vivo; settings: plasma, 10 mg/kg, control drug, corn oil 1 g/kg
Procedure: Five-week-old ICR male mice (obtained from Central Lab. Animal Inc.) were bred in an animal facility where breeding conditions of temperature (20±1° C.), humidity (50±10%), light/dark cycle (12 hours), light intensity (150 to 300 Lux), and ventilation (10 to 20 times/hr) were maintained. Solid feed for laboratory animals (obtained from Cargill Agri Purina Inc.) was freely supplied to the mice, and city water was subjected to steam sterilization and then was freely fed to the mice as drinking water. After acclimation for one week, the […] Herba extract was orally administered to eight mice per group in a concentration of 100 mg/kg, and a saline was orally administered to the control group instead of the extract.

[2] = test system: DIO (Diet Induced-Obesity) mice; test: Blood metabolic disease marker levels in diet-induced obesity (DIO) mice; format: in vivo, C57BL/6 male mice
Procedure: Seven-week-old C57BL/6 male mice (obtained from Coretec Inc.) were bred in an animal facility where breeding conditions of temperature (20±1° C.), humidity (50±10%), light/dark cycle (12 hours), light intensity (150 to 300 Lux), and ventilation (10 to 20 times/hr) were maintained. Solid feed (obtained from Folas International Inc.) was freely supplied to the mice, and city water was subjected to steam sterilization and then was freely fed to the mice as drinking water. After acclimation for one week, 60% Kcal solid feed (obtained from Research Diet Inc.) was supplied to the mice, and the Lysimachiae Foenum-Graeci Herba extract was orally administered to the mice for 42 days in an amount of 30, 100, and 300 mg/kg/day. Sibutramine was administered to a positive control group in an amount of 10 mg/kg/day, and 0.5% MC (methyl cellulose) was administered to a negative control group in the same amount. The mice to which the substances were administered for six weeks were fasted for one day, and then were killed using CO2 gas. Blood gathered from the mouse abdominal vena cava was put into EDTA tubes and stored in ice, and then plasma obtained by centrifugation at 3000 rpm for 10 minutes was analyzed using a biochemical auto analyzer (AU400, Olympus, Japan). Also, organs extracted from the mice were immediately frozen by putting them into liquid nitrogen, were stored in a low-temperature refrigerator (−70° C.), and were histologically analyzed.
The contents of triglycerides and cholesterol in the extracted liver tissues were also measured, the results of which are given in FIG. 2.

[3] = plasma, high-fat diet, 10 mg/kg/day, six weeks
[4] = positive control group, summary of Table 1

| SMILES | CHO (Cholesterol) [1] [mg/dL] | TG (Triglyceride) [1] [mg/dL] | ALT (Alanine aminotransferase) [2, 3] [IU/L] | AST (Aspartate aminotransferase) [2, 3] [IU/L] | CHO (Cholesterol) [2, 3] [mg/dL] | GLU (Glucose) [2, 3] [mg/dL] | TG (Triglyceride) [2, 3] [mg/dL] | ALT and glucose levels [2, 4] | AST and cholesterol levels [2, 4] | triglyceride level [2, 4] |
| --- | --- | --- | --- | --- | --- | --- | --- | --- | --- | --- |
| CCCCCCCCCCC[C@@H](C[C@@H]1OC(=O)[C@H]1CCCCCC)OC(=O)[C@H](CC(C)C)NC=O [Xenical] | 148.83 ± 8.26 | 311.17 ± 45.56 |  |  |  |  |  |  |  |  |
| CC(C)CC(N(C)C)C1(c2ccc(Cl)cc2)CCC1 (stereo not shown) [Sibutramine] |  |  | 64 ± 15.1 | 172.33 ± 58.4 | 187.33 ± 15 | 182.66 ± 27.3 | 91.33 ± 17.0 | meaningfully reduced | not changed | rather increased |

From patent US20100285156A1, “COMPOSITION FOR PREVENTING AND TREATING METABOLIC DISEASES COMPRISING THE EXTRACT OF LYSIMACHIAE FOENUM-GRAECI HERBA” (BRNSCIENCE CO., LTD, priority 2007, published 2010)
